“And” between values parts separate entries of the source, which are not always exact repeats. Identical values can stand only once. Like-named read-outs stand apart in the source and are kept apart here. Residues, ends and D or L forms follow the SMILES beside them. No end group written: not given here.

For assay [1], the target named is T1, somatic angiotensin-converting enzyme (sACE) (Oryctolagus cuniculus, UniProt P12822).
T1 construct: the ACE working solution was prepared according to Murray et al. [28] using rabbit lung; from tissue; host or cells: rabbit lung
T1 sequence (P12822 34-1310): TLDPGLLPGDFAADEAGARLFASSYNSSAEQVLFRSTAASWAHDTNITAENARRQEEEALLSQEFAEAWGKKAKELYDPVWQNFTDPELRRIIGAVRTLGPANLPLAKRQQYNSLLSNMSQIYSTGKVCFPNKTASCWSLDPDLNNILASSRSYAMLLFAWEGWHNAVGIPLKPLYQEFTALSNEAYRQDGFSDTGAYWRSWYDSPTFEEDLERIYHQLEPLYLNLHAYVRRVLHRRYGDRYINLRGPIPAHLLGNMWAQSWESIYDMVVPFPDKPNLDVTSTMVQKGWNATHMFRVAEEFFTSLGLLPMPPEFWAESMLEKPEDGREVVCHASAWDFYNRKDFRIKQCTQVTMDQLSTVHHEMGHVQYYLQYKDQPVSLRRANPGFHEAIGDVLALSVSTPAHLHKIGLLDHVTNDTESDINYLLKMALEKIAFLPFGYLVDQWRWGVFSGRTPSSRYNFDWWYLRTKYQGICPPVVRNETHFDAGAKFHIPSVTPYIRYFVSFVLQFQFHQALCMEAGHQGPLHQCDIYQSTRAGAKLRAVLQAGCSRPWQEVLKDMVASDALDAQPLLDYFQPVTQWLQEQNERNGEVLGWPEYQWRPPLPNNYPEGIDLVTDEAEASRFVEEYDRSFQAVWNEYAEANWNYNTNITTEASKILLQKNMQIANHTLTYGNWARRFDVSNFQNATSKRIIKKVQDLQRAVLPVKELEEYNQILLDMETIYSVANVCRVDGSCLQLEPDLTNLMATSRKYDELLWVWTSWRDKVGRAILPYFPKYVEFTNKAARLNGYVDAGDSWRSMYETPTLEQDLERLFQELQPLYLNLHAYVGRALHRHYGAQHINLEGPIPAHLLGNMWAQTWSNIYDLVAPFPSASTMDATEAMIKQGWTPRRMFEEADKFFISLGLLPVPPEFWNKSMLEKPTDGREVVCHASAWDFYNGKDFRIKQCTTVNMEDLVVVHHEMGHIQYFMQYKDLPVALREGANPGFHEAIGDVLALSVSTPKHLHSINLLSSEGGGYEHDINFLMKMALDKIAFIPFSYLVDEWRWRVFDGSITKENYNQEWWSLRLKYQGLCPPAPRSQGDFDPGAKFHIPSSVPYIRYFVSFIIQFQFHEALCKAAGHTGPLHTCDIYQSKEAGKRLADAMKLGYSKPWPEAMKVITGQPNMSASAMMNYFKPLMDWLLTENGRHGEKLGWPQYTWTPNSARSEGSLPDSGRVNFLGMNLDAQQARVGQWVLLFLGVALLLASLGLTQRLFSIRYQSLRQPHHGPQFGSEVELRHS
As to the kind of experiment: sACE-inhibition fluorimetric assay (o-Abz-Gly-p-Phe(NO2)-Pro-OH substrate). The assay is classed as biochemical, rabbit. The conditions noted are these: synthetic peptides; mean ± SD, n = 3; read-out: ACE-Inhibitory Capacity Expressed as IC50 (converted). As to the method: The sACE-inhibitory capacity was determined using a fluorimetric assay, as reported by Tavares et al., with some modifications. Briefly, the ACE working solution was prepared according to Murray et al. using rabbit lung posteriorly diluted in 0.15 M Tris-base buffer (pH 8.3) with 0.1 mM ZnCl2. A total of 40 µL of the working solution was added to each 96-well microplate well (Porvair, Norfolk, UK), then adjusted to 80 µL by adding distilled water to the blank (B), control (C), or samples (S). The enzyme reaction was started by adding 160 µL of 0.45 mM o-Abz-Gly-p-Phe(NO2)-Pro-OH dissolved in 0.15 M Tris-base buffer (pH 8.3) containing 1.125 M NaCl, and the mixture was incubated at 37 °C for 30 min. The fluorescence generated was measured using a multiscan microplate fluorimeter (FLUOstar optima, BMG Labtech, Ortenberg, Germany) with excitation and emission wavelengths of 350 and 420 nm, respectively. Data were processed with the software FLUOstar control (version 1.32 R2, BMG Labtech, Ortenberg, Germany). The assay was performed in triplicate, and the resulting data were subjected to a nonlinear fit using GraphPad Prism 5 to determine the IC50 (half maximal inhibitory concentration) values. The resulting data (n = 3) were expressed as the mean ± SD (standard deviation).

The test system of the next assay is sACE. The conditions noted are these: cited from earlier work.
A further assay has as its system thoracic aortic rings. Further details: method as in earlier work. As to conditions: Table S2; ref [19] of supplement; cited from earlier work.
For assay [2], the system named is spontaneously hypertensive rats (SHR). As to conditions: cited from earlier work; for anti-hypertensive activity in SHR: Table S2, ref [19] of supplement.
Where [3] appears, read: Table S2, peptides from in vitro digestion (pepsin, pancreatin) of edible insects, ref [14] of supplement.
Where [4] appears, read: Table S2, ref [17] of supplement, read-out: In Vitro (IC50).
Where [5] appears, read: Table S2, T. molitor larvae, ref [21] of supplement, read-out: In Vitro (IC50).
Setting [6] is: peptides found in fermented milks, read-out: IC50 values for sACE.
[7] abbreviates: Table S2, ref [3] of supplement, read-out: In Vitro (IC50).

With `CC(C)[C@H](NC(=O)[C@@H](N)CC(=O)O)C(=O)N[C@@H](Cc1c[nH]c2ccccc12)C(=O)O` [DVW] (H-Asp-Val-Trp-OH), in assay [1], the IC50 is 195 µM and 196 µM.

With `CC[C@H](C)[C@H](NC(=O)[C@@H](N)CCC(N)=O)C(=O)N[C@H](C(=O)N[C@@H](Cc1c[nH]c2ccccc12)C(=O)O)C(C)C` [QIVW] (H-QIVW-OH), in assay [1], the IC50 was 140 µM.

In the case of “AAAPVAVAK [literature peptide from Tenebrio molitor larvae digestion]”, the IC50 with sACE is recorded as 8.31 µg/mL.

For the molecule “AGDDAPR [literature peptide from Tenebrio molitor protein concentrate digestion]”, the IC50 in the assay on sACE is recorded as 8.34 µg/mL.

Take “AIGVGAIER [literature peptide from Schistocerca gregaria digestion]”: the “In Vitro (IC50)” value in the assay on sACE (setting [3]) is reported as 14.43 ± 0.02 µg/mL.

As to APPPKK, in the assay on sACE (Table S2, ref [9] of supplement), the “In Vitro (IC50)” value was 47 µg/mL.

With ASL, the half-inhibitory concentration (IC50) with sACE (Table S2, ref [5] of supplement, read-out: In Vitro (IC50)) is 102 µM.

“AVFPSIVGR [literature peptide from Apis mellifera pupae hydrolysate]”: the IC50 in the assay on sACE (read-out: IC50) is 6.64 µM.

Turning to AVQPCF [AVQPCF], in assay [1], the IC50 was 3.69 µM.

As for Ala-Val-Phe [AVF], the IC50 was 2120 µM in the assay on sACE (Table S2, ref [18] of supplement, read-out: In Vitro (IC50)) and 1370 to 1430 µM in the assay on sACE (Table S2, synthesized peptides, ref [19] of supplement, read-out: In Vitro (IC50)). Further, the “inhibitory activity in thoracic aortic rings from male Wistar rats” value in the assay on thoracic aortic rings was “no inhibitory activity”. In addition, in assay [2], the “anti-hypertensive activity in SHR” value was “anti-hypertensive activity”.

As for CAIAW [CAIAW], the IC50 in assay [1] was 6.56 µM and 6.55 µM.

Turning to “FDPFPK (LCFDPFPK) [literature peptide from Schistocerca gregaria digestion]”, in the assay on sACE (setting [3]), the “In Vitro (IC50)” value was 79.25 ± 0.04 µg/mL.

For FFGT, the IC50 with sACE (setting [4]) is 19.4 ± 1.7 µM.

With GAMVVH, the IC50 with sACE (Table S2, ref [7] of supplement, read-out: In Vitro (IC50)) was 19.4 ± 0.21 µM.

As to “GKDAVIV [literature peptide from Schistocerca gregaria digestion]”, the “In Vitro (IC50)” value with sACE (setting [3]) was 12.82 ± 0.02 µg/mL.

As for GNPWM, the IC50 in the assay with sACE (Table S2, ref [10] of supplement, read-out: In Vitro (IC50)) is 21.7 µM.

As to HILG, the half-maximal inhibitory concentration (IC50) in the assay with sACE (setting [5]) is 2820 µM.

For the molecule “IIAPPER [literature peptide from Gryllodes sigillatu digestion]”, in the assay with sACE, the IC50 was 6.93 µg/mL.

As for IIIGW [IIIGW], the IC50 in assay [1] is 54.6 µM and 54.5 µM.

In the case of IPP, the IC50 in the assay on sACE (setting [6]) was 5 µM.

For the molecule KHV, the IC50 in the assay on sACE (Table S2, ref [8] of supplement, read-out: In Vitro (IC50)) was 12.8 µM.

As for “KVEGDLK [literature peptide from Gryllodes sigillatu digestion]”, the IC50 in the assay on sACE is 3.67 µg/mL.

For “LAPSTIK [literature peptide from Gryllodes sigillatu digestion]”, the “In Vitro (IC50)” value with sACE (setting [3]) is 11.14 ± 0.08 µg/mL.

For the molecule LLKPY, the IC50 with sACE (Table S2, ref [2] of supplement, read-out: In Vitro (IC50)) was 54.9 µM.

For the molecule LSRVP, the IC50 in the assay with sACE (setting [4]) was 52.7 ± 4.04 µM.

In the case of NIKY, the IC50 with sACE (setting [5]) was 52.2 µM.

For the molecule “NYVADGLG [literature peptide from Tenebrio molitor larvae digestion]”, the “In Vitro (IC50)” value in the assay with sACE (setting [3]) was 12.09 ± 0.08 µg/mL.

For “PGKVHIT [literature peptide from Apis mellifera pupae hydrolysate]”, in the assay with sACE (setting [7]), the IC50 is 224 µM.

Turning to PIVCF [PIVCF], the IC50 in assay [1] is 4.64 µM and 4.63 µM.

Turning to “PPVLVFV [literature peptide from Apis mellifera pupae hydrolysate]”, in the assay on sACE (setting [7]), the IC50 is 47.8 µM.

In the case of QGLGY, in the assay with sACE (setting [5]), the IC50 was 264 µM.

On to RYL, for which, in the assay with sACE (peptide from Bombyx mori hydrolysates, read-out: IC50), the IC50 is 3.31 µM.

As to “VAPEEHPV [literature peptide from Gryllodes sigillatu digestion]”, the “In Vitro (IC50)” value in the assay on sACE (setting [3]) was 18.85 ± 0.05 µg/mL.

Take VPP: in the assay on sACE (setting [6]), the IC50 was 9 µM.

Take Val-Phe [VF]: the IC50 in the assay with sACE (Table S2, […], ref [19] of supplement, read-out: In Vitro (IC50)) was 120 to 144 µM. Besides, in the assay with thoracic aortic rings, the “inhibitory activity in thoracic aortic rings from male Wistar rats” value is recorded as “inhibitory activity”. Further, in assay [2], the “anti-hypertensive activity in SHR” value was “anti-hypertensive activity” and the “in vivo antihypertensive capacity” value is “demonstrated in vivo antihypertensive capacity”.

YAN: in the assay on sACE (Table S2, T. molitor larva flour, alcalase, ref [20] of supplement), the “In Vitro (IC50)” value is 17 µg/mL. The IC50 in the assay on sACE (setting [5]) was 172 µM.

As for “YDDGSYKPH [literature peptide from Tenebrio molitor larvae digestion]”, the IC50 in the assay on sACE is recorded as 5.81 µg/mL.

Turning to “YETGNGIK [literature peptide from Schistocerca gregaria digestion]”, the IC50 in the assay with sACE is 3.25 µg/mL.

The record behind these values is PMC11544891, “Uncovering the Potential Somatic Angiotensin-Converting Enzyme (sACE) Inhibitory Capacity of Peptides from Acheta domesticus: Insights from In Vitro Gastrointestinal Digestion” (Foods, 2024).
